Tests used:
[1] = tested on: proximal large intestine; assay: Evaluation 1 of in vivo epithelial detachment effect; set-up: species or system mice (C57B6/j); conditions: 8 mL at 50° C. over two minutes, once
Text: A longitudinal 1-cm abdominal midline incision was made, and the proximal large intestine was exposed to the outside of the abdominal cavity. A small incision was made in the proximal large intestine 1 cm anal side from the cecum, and a catheter was inserted toward the anal. […] A small incision was made 1 cm anal side from the catheter insertion site, and another catheter was inserted toward the oral side. These two catheters allowed perfusion of the 1-cm-long intestinal tract. The catheters were each fixed with a thread from the outside of the intestinal tract, together with the vasculature, to cut off the blood flow in the 1-cm-long intestinal tract sandwiched between the two catheters.
Immediately after the injection of the biological tissue embrittling agents, 25 mL of Dulbecco's phosphate-buffered saline (without Ca and Mg) was continuously injected three times each over 45 seconds, whereby the crypts were detached. Then, 20 mL of Dulbecco's Modified Eagle's Medium, high glucose, (Sigma-Aldrich Cat #D5796) was injected to antagonize the biological tissue embrittling agents. […] The large intestine was longitudinally cut and flat opened, and was imaged with a fluorescent stereo microscope (Leica M165 FC) and an all-in-one fluorescence microscope (KEYENCE BZ-X800). The images were analyzed with ImageJ and the detached area was measured. […]

[2] = tested on: large intestine tissue pieces (crypts); assay: Evaluation 1 of in vitro crypt isolation effect; assay type: cell-based, mice (C57B6/j); conditions: 37° C. 30 minutes
Protocol: Eight-week-old male mice (C57B6/j, CLEA Japan, Inc.) were sacrificed by cervical dislocation and the whole large intestine was removed. […] The intestinal tract was longitudinally opened and 5-mm-long tissue pieces were obtained. The tissue pieces were placed in 1.5-mL microtubes each containing 1 mL of Hank's balanced salt solution. The tissue pieces were washed by stirring for 10 minutes with a microtube mixer (MT-400 available from TOMY SEIKO CO., LTD.). After washing, the tissue pieces were transferred to other 1.5-mL microtubes each containing 1 mL of Hank's balanced salt solution, and washed in the same manner.
The tissue pieces were transferred to 1.5-mL microtubes containing the compositions (C-1) to (C-6) and the comparative compositions (C′-1) to (C′-7) each in an amount of 1 mL and were allowed to stand at 37° C. for 30 minutes.
After 30 minutes, the tissue pieces were transferred to other 1.5-mL microtubes each containing 1 mL of Hank's balanced salt solution and stirred for five minutes with a microtube mixer. Thereby, the crypts were isolated. […] Thereby, the tissue was fixed. A 50-μL portion was sampled therefrom and dropped onto dishes, and the number of crypts contained was counted using an optical microscope. The number of crypts was counted three times for each concentration, and the average was calculated therefrom.
The presence of one or more crypts was considered that a sufficient embrittlement effect was obtained.

[3] = tested on: minced distal large intestine tissue (crypts); assay: Evaluation 2 of in vitro crypt isolation effect; assay type: cell-based, mice (C57B6/j); conditions: 37° C. 30 minutes
Protocol: Thereby, the crypts were isolated. […] Thereby, the tissue was fixed. A 50-μL portion was sampled therefrom and dropped onto dishes, and the number of crypts contained was counted using an optical microscope. The number of crypts was counted three times for each concentration, and the average was calculated therefrom.

[4] = tested on: beagle dogs; conditions: Ca-EDTA compared with Ca-DTPA; cited from earlier work

## O=C([O-])CN(CCN(CC(=O)O)CC(=O)O)CC(=O)[O-].[Na+].[Na+] [(Z′-1), disodium ethylenediaminetetraacetate]
[1]; 230 mM, agents (M-1), (M′-2)
  Evaluation 1 of epithelial detachment effect Detached area: 30.2 mm^2
[1]; 500 mM, agent (M′-3)
  Evaluation 1 of epithelial detachment effect Detached area: 66.0 mm^2
[2]; 2 mM, compositions (C-1), (C′-2)
  Number of crypts: 48.67
[2]; 8 mM, compositions (C-2), (C′-3)
  Number of crypts: 156.33
[2]; 16 mM, compositions (C-3), (C′-4)
  Number of crypts: 140
[2]; 32 mM, compositions (C-4), (C′-5)
  Number of crypts: 129.33
[2]; 64 mM, compositions (C-5), (C′-6)
  Number of crypts: 115.33
[2]; 128 mM, compositions (C-6), (C′-7)
  Number of crypts: 95.67
[3]; 3 mM, compositions (C-7) to (C-10), (C′-8)
  Number of crypts: 108.89
[3]; 10 mM, compositions (C-11) to (C-14), (C′-9)
  Number of crypts: 169.56

## O=C(O)CN(CCN(CC(=O)O)CC(=O)O)CC(=O)O.[Ca] [Ca-EDTA]
[4]
  safety of intravenous administration for one month: no significant difference in safety

## O=C([O-])CN(CCN(CC(=O)[O-])CC(=O)[O-])CCN(CC(=O)[O-])CC(=O)[O-].[Ca+2].[Na+].[Na+].[Na+] [Ca-DTPA]
[4]
  safety of intravenous administration for one month: no significant difference in safety
